Values quoted from earlier work as cited in patent US6110927A, “Loratadine for use as an antiarrhythmic” (Pfizer Inc, priority 1999, dated 2000).

What was measured:
[1] = clinical studies
[2] = both with and without a history of similar arrhythmia
hKv1.5 channels = conditions: only at concentrations much higher than therapeutic plasma levels in man

Row | Structure (SMILES) | efficacy in treating patients with atrial arrhythmias [1] | reported cases of atrial fibrillation with loratadine use [2] | block of hKv1.5 channels (hKv1.5 channels)
1 | CN(CCOc1ccc(NS(C)(=O)=O)cc1)CCc1ccc(NS(C)(=O)=O)cc1 [dofetilide] | effective in treating patients with atrial arrhythmias | – | –
2 | CCOC(=O)N1CCC(=C2c3ccc(Cl)cc3CCc3cccnc32)CC1 [loratadine, ethyl 4-(8-chloro-5,6-dihydro-11-H-benzo [5,6]cyclohepta-[1,2-b]-pyridin-11-ylidene)-1-piperidinecarboxylate] | – | at least 2 cases | blocked hKv1.5 channels in a concentration-, voltage-, time- and use-dependent manner
